The numbers were not newly measured in patent US6551611B2, “Hormone replacement therapy method” (Schering Aktiengesellschaft, priority 1995, dated 2003), which cites them from elsewhere.

The structures appear in SMILES notation.

For the data set the following is noted: oral administration.

As for `C[C@]12CC[C@@H]3c4ccc(O)cc4CC[C@H]3[C@@H]1CC[C@@H]2O` [estradiol], the “bioavailability of estradiol orally, average” value is reported as 5 % of the oral dose.
